Measured values taken from patent publication US6890906B2, “Method for controlling angiogenesis in animals” (Glycogenesys, Inc., priority 2001, dated 2005).
“And” between values parts separate entries of the source, which are not always exact repeats. Equal values may be shown once. Read-outs that look alike come from different tables or passages of the source.

Tests used:
[1] = tested on: human umbilical vein endothelial cells (HUVEC); experiment: Inhibition of VEGF-induced HUVEC cell migration by modified pectin in transwell plate; type: cell-based; conditions: VEGF 30 ng/ml Only (positive control, no GCS-100)
Protocol: Following incubation, the membranes were fixed and stained. […] Three runs were made.
The material comprised a modified pectin which is commercially available from GlycoGenesys, Inc. of Boston, Mass., under the designation GCS-100. In this experimental series, HUVEC cells were incubated in a transwell plate with VEGF, and varying concentrations of the therapeutic material, under conditions as described hereinabove. The concentration of VEGF was 30 ng/ml. In one group of experiments, cells were incubated with VEGF in the absence of the carbohydrate material, and these experiments served as a positive control. In another group of experiments, cells were incubated with growth medium and no VEGF or therapeutic carbohydrate, and this group served as a negative control. In the remaining experiments, concentrations of the GCS-100 ranging from 0.001% to 0.1% were employed.

[2] = tested on: human umbilical vein endothelial cells (HUVEC); conditions: for AVERAGE cell count: average of runs; for Cell count (cells that migrated through the membrane): single runs, 4 hours, 37° C.
Protocol: In a first portion of the experimental series, the effect of the chemoattractant vascular endothelial growth factor (VEGF) on human umbilical vein endothelial cells (HUVEC) was quantified. The experiment was carried out in a transwell plate, and in preparation therefor, HUVEC cells were grown to approximately 80% confluency. The cells were suspended in basal media and placed in a transwell plate on fibronectin coated membrane inserts at 50,000 cells per insert. Varying concentrations of VEGF were added to the bottom chamber of the transwell plate, and the plates incubated for 4 hours at 37° C. with a 5% CO2 atmosphere. Following incubation, the membranes were fixed and stained. Nonmigrated cells were removed by mechanical abrasion and cells that migrated through the membrane were counted. […] Three runs were made.

In the case of “vascular endothelial growth factor [VEGF]”, the AVERAGE cell count ([1]; average) is reported as 1244, the “Cell count (migrated cells)” value ([1]; single runs) is reported as 1322 and 1167 and the AVERAGE cell count ([2]; 1 ng/ml VEGF) is reported as 734. The “Cell count (cells that migrated through the membrane)” value ([2]; 1 ng/ml VEGF) was 607 and 766 and 830, the AVERAGE cell count ([2]; 3 ng/ml VEGF) was 1043 and the “Cell count (cells that migrated through the membrane)” value ([2]; 3 ng/ml VEGF) was 950 and 1136. For the same substance, the AVERAGE cell count ([2]; 10 ng/ml VEGF) was 1218, the “Cell count (cells that migrated through the membrane)” value ([2]; 10 ng/ml VEGF) was 1144 and 938 and 1573 and the AVERAGE cell count ([2]; 30 ng/ml VEGF) was 1162. The “Cell count (cells that migrated through the membrane)” value ([2]; 30 ng/ml VEGF) was 898 and 1448 and 1140, the AVERAGE cell count ([2]; 100 ng/ml VEGF) was 1210 and the “Cell count (cells that migrated through the membrane)” value ([2]; 100 ng/ml VEGF) was 1650 and 901 and 1078. For the same substance, the chemotactic effect ([2]; VEGF concentrations of 10-30 ng/ml) was “strong chemotactic effect”.
